Structures can show the parent of a compound that is named as a salt.

Our source for the Ki values is patent publication US20110207729A1, “BICYCLIC ACYLGUANIDINE DERIVATIVE” (ASTELLAS PHARMA INC., priority 2007, published 2011).

In the assay the target is T1, human 5-HT5A receptor (Homo sapiens, UniProt P47898).
T1 construct: expressed in transfected cells; membrane preparation
The assay can be described thus: Test on a human 5-HT5A receptor binding inhibition ([3H]5-CT). To be noted: membrane from HEK293 cells expressing human 5-HT5A receptor; Ki calculated from IC50 and Kd 4.95 nM. The method, then: Acquisition of HEK293 cells for forced expressions of a human 5-HT5A receptor
The ORF (open reading frame; protein coding region) of a human 5-HT5A receptor (Genbank AF498985) was cloned from a human hippocampus cDNA library, and then inserted into a pCR2.1 vector (Invitrogen), and Escherichia coli containing the plasmid was cultured in a large amount. Next, the full-length cDNA sequence of the human 5-HT5A receptor was analyzed, and recombined into a pcDNA3.1 vector (Invitrogen) as an expression vector and cultured in a large amount. HEK293 established cells (ATCC) derived from the human fetal kidney were seeded, the expression plasmid (1 μg) obtained above were added thereto with LIPOFECTAMINE 2000 (Invitrogen; 2 μl), the gene was transfected into HEK293 cells, and the expression cells were screened with a drug-resistant marker, Geneticin (G418 sulfate 500 μg/ml; Kanto Chemical Co., Inc.). Thus prepared recombinant cells which express the gene were cultured in a medium containing D-MEM (Dulbecco's modified eagle medium, Sigma), 10% FCS (Fetal calf serum: fetal bovine serum), 1% Pc./Sm (Penicillin/Streptomycin, Invitrogen), and 500 μg/ml G418 for 3 days. These experimental operations follow an manual for gene operation experiment and an instruction appended in a reagent, and the like, such as a known method (Sambrook, J. et al, Molecular Cloning—A Laboratory Manual”, Cold Spring Harabor laboratory, NY, 1989).
(1) Preparation of a Membrane from HEK293 Cells for Forced Expressions of a Human 5-HT5A Receptor
HEK293 cells for forced expressions of a human 5-HT5A receptor were cultured in a F500 plate, and scraped with a scraper. After centrifugation, a precipitate was collected, and an incubation buffer (50 mM Tris (HCl) (pH 7.4), 10 mM MgSO4, and 0.5 mM EDTA (ethylenediamine tetraacetic acid)) were added thereto. After homogenization, it was further centrifuged, and the precipitate was added with the incubation buffer, followed by thoroughly suspending. This operation was repeated, and a protein concentration was measured, thereby completing the preparation of a membrane.
(2) Test on a Human 5-HT5A Receptor Binding Inhibition
A solution of a compound to be tested and 100 μM 5-CT (5-carboxamidetriptamine) in DMSO was added to a 96-well plate at 2 μl/well, and suspended in an incubation buffer, and a membrane from HEK293 cells for forced expressions of a human 5-HT5A receptor prepared at 200 μg/ml was added at 100 μl/well. After incubation at room temperature for 15 minutes, a [^3H]5-CT solution (2 nM [^3H]5-CT, incubation buffer) was added thereto at 100 μl/well.
Separately, 100 μl of the solution was distributed into a liquid scintillation vial, and 2 ml of Aquasol II (registered trademark) was added thereto, followed by stirring. Then, a radioactivity was measured by a liquid scintillation counter. It was incubated at 37° C. for 60 minutes. The reaction mixture was sucked into 96-well GF/C filter plate that had been pre-treated with 0.2% polyethyleneimine, and washed six times with an ice-cooled, 50 mM Tris (pH 7.5) buffer. The GF/C filter plate was dried.
Microscint TMPS (registered trademark) was added thereto at 40 μl/well. A radioactivity remaining on the GF/C filter plate was measured by a top counter.
The [^3H]5-CT binding inhibiting activity by the compound to be tested in each experiment was determined as an IC50 value with a radioactivity upon addition of DMSO alone being 0% inhibition, and a radioactivity upon addition of 1 μM 5-CT being 100% inhibition. Separately, a Ki value was calculated from the Kd value of the [^3H]5-CT determined from Scatchard analysis, by the following equation.
Ki=IC50(1+Concentration of ligands added/Kd(4.95 nM))

T1 sequence (P47898 whole entry): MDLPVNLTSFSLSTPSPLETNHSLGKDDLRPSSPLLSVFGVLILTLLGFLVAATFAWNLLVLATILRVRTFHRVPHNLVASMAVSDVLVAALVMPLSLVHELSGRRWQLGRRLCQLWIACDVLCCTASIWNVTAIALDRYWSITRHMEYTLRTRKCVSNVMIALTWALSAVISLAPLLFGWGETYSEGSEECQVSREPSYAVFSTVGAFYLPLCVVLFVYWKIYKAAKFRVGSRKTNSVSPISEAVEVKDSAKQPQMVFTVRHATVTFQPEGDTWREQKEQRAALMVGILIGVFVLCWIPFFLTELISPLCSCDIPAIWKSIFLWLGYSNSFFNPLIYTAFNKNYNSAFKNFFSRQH

One may read the Ki as the equilibrium dissociation constant of an inhibitor or competing ligand from its target. Take `NC(N)=NC(=O)c1ccc2c(c1)C(c1c(F)ccc(F)c1F)=CCC2` [Example 2-99]: the Ki is 0.3 to 3 nM.

As to `COc1cc(F)c(F)cc1C1=CCCc2ccc(C(=O)N=C(N)N)cc21` [Example 2-100], the Ki was 3 to 30 nM.

As to `NC(N)=NC(=O)c1ccc2c(c1)C(c1ccc(F)cc1F)=CCC2` [Example 2-101], the Ki is 0.3 to 3 nM.

Take `NC(N)=NC(=O)c1ccc2c(c1)C(c1c(F)cccc1F)=CCC2` [Example 2-105]: the inhibition constant (Ki) was 0.3 to 3 nM.

For `NC(N)=NC(=O)c1ccc2c(c1)C(c1cccc(Cl)c1F)=CCC2` [Example 2-110], the inhibition constant (Ki) was 0.3 to 3 nM.

Regarding `N#CCc1ccccc1C1=CCCc2ccc(C(=O)N=C(N)N)cc21` [Example 2-114], the Ki is 30 to 300 nM.

Take `CCC1=C(c2ccccc2)c2cc(C(=O)N=C(N)N)ccc2CC1` [Example 2-115]: the inhibition constant Ki was 3 to 30 nM.

Consider `CCCC1=C(c2ccccc2)c2cc(C(=O)N=C(N)N)ccc2CC1` [Example 2-116], for which the Ki was 30 to 300 nM.

As to `NC(N)=NC(=O)c1ccc2c(c1)C(c1ccc(C(F)(F)F)cc1C(F)(F)F)=CCC2` [Example 2-117], the Ki was 30 to 300 nM.

As to `NC(N)=NC(=O)c1ccc2c(c1)C(c1cncc(F)c1)=CCC2` [Example 2-123], the inhibition constant Ki is 30 to 300 nM.

On to `Cc1ccc(C2=CCCc3ccc(C(=O)N=C(N)N)cc32)c(Cl)c1` [Example 2-134], for which the inhibition constant Ki is 0.3 to 3 nM.

For the compound `Cc1cc(Cl)ccc1C1=CCCc2ccc(C(=O)N=C(N)N)cc21` [Example 2-135], the Ki was 0.3 to 3 nM.

As for `NC(N)=NC(=O)c1ccc2c(c1)C(c1cc(Cl)c(F)cc1F)=CCC2` [Example 2-136], the Ki is 3 to 30 nM.

As for `COc1ncccc1C1=CCCc2ccc(C(=O)N=C(N)N)cc21` [Example 2-140], the inhibitory constant (Ki) was 3 to 30 nM.

As for `CC1=C(c2ccc(C)nc2)c2cc(C(=O)N=C(N)N)ccc2CC1` [Example 2-141], the Ki is 3 to 30 nM.

In the case of `NC(N)=NC(=O)c1ccc2c(c1)C(c1ccc(C(F)(F)F)nc1)=CCC2` [Example 2-142], the Ki was 30 to 300 nM.

Consider `CC1=C(c2cc(F)c(F)cc2F)c2cc(C(=O)N=C(N)N)ccc2CC1` [Example 2-143], for which the Ki was 0.3 to 3 nM.

As for `CC1=C(c2ccc(Cl)cc2Cl)c2cc(C(=O)N=C(N)N)ccc2CC1` [Example 2-144], the Ki was 0.3 to 3 nM.

As for `NC(N)=NC(=O)c1ccc2c(c1)C(c1cncc(Cl)c1)=CCC2` [Example 2-150], the Ki is 30 to 300 nM.

On to `NC(N)=NC(=O)c1ccc2c(c1)C(c1cncs1)=CCC2` [Example 2-157], for which the Ki is 3 to 30 nM.

In the case of `NC(N)=NC(=O)c1ccc2c(c1)C(c1ccncc1F)=CCC2` [Example 2-158], the inhibition constant Ki is 0.3 to 3 nM.

`CC1=C(c2ccc(F)cc2C)c2cc(C(=O)N=C(N)N)ccc2CC1` [Example 2-163]: the inhibitory constant (Ki) is 0.3 to 3 nM.

Turning to `CC1=C(c2ccc(C)cc2C)c2cc(C(=O)N=C(N)N)ccc2CC1` [Example 2-164], the Ki is 0.3 to 3 nM.

Turning to `COc1ccc(C2=CCCc3ccc(C(=O)N=C(N)N)cc32)c(C(F)(F)F)c1` [Example 2-165], the inhibition constant (Ki) was 3 to 30 nM.

In the case of `COc1cc(C#N)ccc1C1=C(F)CCc2ccc(C(=O)N=C(N)N)cc21` [Example 2-166], the Ki was 0.3 to 3 nM.

For `CC(C)n1cc(C2=CCCc3ccc(C(=O)N=C(N)N)cc32)cn1` [Example 2-167], the Ki is 30 to 300 nM.

In the case of `NC(N)=NC(=O)c1ccc2c(c1)C(c1cccc(F)c1Cl)=CCC2` [Example 2-168], the inhibitory constant (Ki) was 0.3 to 3 nM.

On to `NC(N)=NC(=O)c1ccc2c(c1)C(c1cc(F)ccc1Cl)=CCC2` [Example 2-169], for which the Ki is 3 to 30 nM.

Turning to `COc1ccc(C2=C(C)CCc3ccc(C(=O)N=C(N)N)cc32)c(C)c1` [Example 2-170], the inhibition constant (Ki) is 0.3 to 3 nM.

In the case of `NC(N)=NC(=O)c1ccc2c(c1)C(c1ccc3nccn3c1)=CCC2` [Example 2-171], the Ki was 3 to 30 nM.

As to `COc1ccc(C2=CCCc3ccc(C(=O)N=C(N)N)cc32)c(OC)n1` [Example 2-173], the Ki is 3 to 30 nM.

In the case of `NC(N)=NC(=O)c1ccc2c(c1)C(c1ccnc(Cl)c1)=CCC2` [Example 2-174], the inhibition constant Ki was 3 to 30 nM.

Consider `N#Cc1ccc(F)cc1C1=CCCc2ccc(C(=O)N=C(N)N)cc21` [Example 2-175], for which the inhibition constant (Ki) was 30 to 300 nM.

On to `NC(N)=NC(=O)c1ccc2c(c1)C(c1cccnc1Cl)=CCC2` [Example 2-176], for which the Ki is 3 to 30 nM.

`CC1=C(c2ccc(F)cc2F)c2cc(C(=O)N=C(N)N)ccc2CC1` [Example 2-177]: the Ki was 0.3 to 3 nM.

In the case of `COc1cc(F)c(C2=C(C)CCc3ccc(C(=O)N=C(N)N)cc32)c(F)c1` [Example 2-178], the Ki is 0.3 to 3 nM.

As to `COc1cc(F)cc(F)c1C1=CCCc2ccc(C(=O)N=C(N)N)cc21` [Example 2-179], the Ki is 3 to 30 nM.

For the compound `N#Cc1cccc(F)c1C1=CCCc2ccc(C(=O)N=C(N)N)cc21` [Example 2-180], the Ki was 3 to 30 nM.

As to `COc1cccc(C2=CCCc3ccc(C(=O)N=C(N)N)cc32)c1C#N` [Example 2-181], the Ki is 30 to 300 nM.

With `N#Cc1cc(Cl)ccc1C1=CCCc2ccc(C(=O)N=C(N)N)cc21` [Example 2-185], the Ki was 30 to 300 nM.

Turning to `NC(N)=NC(=O)c1ccc2c(c1)C(c1cccc3c1OCCO3)=CCC2` [Example 2-189], the inhibition constant (Ki) was 30 to 300 nM.

With `NC(N)=NC(=O)c1ccc2c(c1)C(c1c(Cl)cncc1Cl)=CCC2` [Example 2-190], the Ki is 3 to 30 nM.

Turning to `Cn1cc(C2=CCCc3ccc(C(=O)N=C(N)N)cc32)ccc1=O` [Example 2-191], the Ki is 30 to 300 nM.

For `NC(N)=NC(=O)c1ccc2c(c1)C(N1CCNCC1)CCC2` (stereo not drawn) [Example 3-01, N-(diaminomethylene)-8-piperazin-1-yl-5,6,7,8-tetrahydronaphthalene-2-carboxamide trihydrochloride], the Ki was 30 to 300 nM.

In the case of `NC(N)=NC(=O)c1ccc2c(c1)C(c1ccccc1)CCC2` (stereo not drawn) [Example 3-02], the inhibition constant Ki is 3 to 30 nM.

For `NC(N)=NC(=O)c1ccc2c(c1)C(c1ccccc1)=CCCC2` [Example 3-03], the Ki was 30 to 300 nM.

For the compound `N#Cc1ccc(C2=CCCCc3ccc(C(=O)N=C(N)N)cc32)cc1` [Example 3-04], the inhibitory constant (Ki) is 30 to 300 nM.

For `NC(N)=NC(=O)c1ccc2c(c1)C(c1c(F)cc(F)cc1F)=CCCC2` [Example 3-05], the inhibition constant Ki was 3 to 30 nM.

Consider `COc1ccccc1C1=CCCCc2ccc(C(=O)N=C(N)N)cc21` [Example 3-06], for which the inhibition constant (Ki) was 30 to 300 nM.

Turning to `NC(N)=NC(=O)c1ccc2scc(-c3ccccc3)c2c1` [Example 3-07], the Ki is 3 to 30 nM.

On to `COc1ccccc1-c1csc2ccc(C(=O)N=C(N)N)cc12` [Example 3-08], for which the inhibition constant (Ki) was 0.3 to 3 nM.

On to `NC(N)=NC(=O)c1ccc2occ(-c3ccccc3)c2c1` [Example 3-09], for which the Ki was 30 to 300 nM.

In the case of `NC(N)=NC(=O)c1ccc2c(c1)C(c1ccccc1)=CCCO2` [Example 3-10], the inhibitory constant (Ki) is 3 to 30 nM.

`COc1ccccc1C1=CCCOc2ccc(C(=O)N=C(N)N)cc21` [Example 3-11]: the inhibition constant (Ki) was 3 to 30 nM.

As for `NC(N)=NC(=O)c1ccc2c(c1)C(c1c(F)cc(F)cc1F)=CCCO2` [Example 3-12], the Ki was 0.3 to 3 nM.

Regarding `N#Cc1ccc(C2=CCCOc3ccc(C(=O)N=C(N)N)cc32)cc1` [Example 3-13], the inhibition constant Ki is 3 to 30 nM.

Regarding `NC(N)=NC(=O)c1ccc2scc(-c3c(F)cc(F)cc3F)c2c1` [Example 3-14], the inhibition constant Ki is 0.3 to 3 nM.

As for `Cc1ccc(C2=CCSc3ccc(C(=O)N=C(N)N)cc32)c(F)c1` [Example 3-15], the Ki was 3 to 30 nM.

With `NC(N)=NC(=O)c1ccc2c(c1)C(c1c(F)cc(F)cc1F)=CCS2` [Example 3-16], the inhibition constant (Ki) is 0.3 to 3 nM.

Turning to `N#Cc1ccc(C2=CCSc3ccc(C(=O)N=C(N)N)cc32)cc1` [Example 3-17], the inhibition constant (Ki) is 3 to 30 nM.
